# From US9351986B2, “Calicheamicin derivative-carrier conjugates” (priority 2002, dated 2016)
# Several values for one entry are separate records, joined by “and”; a condition that tells them apart may be missing. Equal values may be shown once.
# Experiments:
# Fc-CD22 = experiment: BIACORE blocking of murine anti-CD22 mAbs by G5/44 on immobilized Fc-CD22; assay type: binding; settings: Fc-CD22 saturated with G5/44 (100 μg/ml), before murine mAb
# Description: Whether or not G5/44 can inhibit the binding of murine mAbs of known specificity to CD22 was evaluated by BIACORE™ analysis using Fc-CD22 immobilized to a BIACORE™ CM5 chip. The surface plasmon resonance units (RU) obtained with and without prior saturation of the immobilized Fc-CD22 with G5/44 were compared. Biomolecular interaction analysis was performed using a BIACORE™ 2000. Antibodies were passed over a blank control surface (flowcell 1, serves as a control, no protein was coupled) and the test surface of Fc-CD22 (flowcell 2) immobilized on a CM5 sensor chip via amine coupling chemistry to a level of 9,042 RU. The resultant sensorgram was the response (RU) on flowcell 2 minus the response (RU) on flowcell 1. A second sensorgram was obtained by first saturating the flowcells with G5/44 (100 μg/ml) before the introduction of murine mAbs against CD22 that had been previously characterized for their binding. Immediately upon measuring the G5/44 response, murine anti-CD22 mAbs were individually perfused without removing G544. The second combined response generated due to the binding of murine anti-CD22 mAb to G5/44-coated CD22 was also recorded. If the murine antibody bound to CD22 at sites unrelated to those occupied by G5/44, then the combined responses would be additive. […]
# Ramos cells [1] = experiment: Disseminated RAMOS B lymphoma in SCID mice, established model; assay type: in vivo
# Description: (§1) Male SCID mice (CB17 SCID), 20-25 g, were injected with […] through the tail vein (0.2 ml). […] For the day 3 treatment schedule, mice were dosed on days 3, 7, and 11. For the day 9 treatment schedule, mice were dosed on days 9, 13 and 17. […] Mice were monitored daily for the presence of hind limb paralysis at which time they were killed. Seven to 10 mice per treatment group were used. The group average survival time (±SD), median, minimum, and maximum survival times were all calculated. The difference in survival distribution between groups was determined by using a nonparametric Log-rank test with significance reported at the 0.05 level. The survival curves were constructed using the Kaplan-Meier method.
# The initial study examined the effect of two different dosing schedules on survival times of the SCID mice with the disseminated lymphoma. The first study looked at initiating drug dosing 3 days after the tumor cells were injected intravenously (developing model), while the second study delayed drug dosing until 9 days post tumor cell injection (established model). […]
# CD22 on B cells = experiment: Species specificity of CD22 recognition on B cells; assay type: binding, human, murine, rat, canine, porcine, cynomolgus and rhesus; settings: data not shown
# Source text: (§2) Purified human polyclonal IgG1 and IgG4 were also used as negative controls.
# RL lymphoma = experiment: Large established RL lymphoma xenografts; assay type: in vivo, mice
# Description: (§3) The ability of CMC-544 made by the new procedure to inhibit growth of large established B-cell lymphoma xenografts using both the RAMOS and RL lymphoma models was also investigated. The tumors were allowed to grow and staged to 1.5 or 2 g of tumor mass after which CMC-544 or an isotype-matched negative control conjugate (CMA-676) were administered intraperitoneally at the dose of 160 μg/kg of conjugated calicheamicin keeping the original schedule of dosing on days 1, 5 and 9.
# A similar experiment using CMC-544 was carried out in the RL lymphoma model. Intraperitoneal administration of CMC-544 at a dose of 160 μg/kg on a similar schedule as described before caused >90% regression of the pre-existing mass of RL lymphoma within 30 days. […] In a small number of studies not shown here, RL lymphomas that re-grew sporadically after the initial CMC-544-induced regression were retreated with CMC-544 again. […] Thus, the treatment with CMC-544 can be effective against both small and large masses of B-cell lymphomas with the potential for repeat therapy.
# RAMOS B-cell lymphoma = RAMOS B-cell lymphoma xenograft growth; assay type: in vivo; settings: FIG. 18
# Source text: In Vivo Cytotoxicity. CMC-544 made by the CMC-544 process was further evaluated in B-cell lymphoma xenografts. In these studies, two B-cell lymphoma tumors, RAMOS and RL, were used. RL lymphoma is a non-Burkitt's NHL-derived cell line whereas RAMOS was originally derived from a Burkitt's lymphoma.
# Ramos cells [2] = experiment: Ramos cell viability, CMC-544 with and without rituximab, 96 hours; assay type: cell-based; settings: CMC-544 alone, calicheamicin DMH
# Description: After 96 hours, cell viability was measured by propidium iodide exclusion analyzed by flow cytometry. […] The statistical analysis was conducted using the PROBIT procedure in SAS version 8.2.
# RL B lymphoma xenograft = experiment: Subcutaneous RL B lymphoma xenograft, CMC-544 versus rituximab and CHOP; assay type: in vivo, Balb/c nude mice; settings: IP, Q4Dx3, 160 μg/kg calicheamicin equivalents
# Description: Female, athymic nude mice, 18-22 g, were given total body irradiation (400 rads). […] Three days after irradiation, mice were injected subcutaneously with 107 RL cells in […] ™ (Collaborative Biomedical Products, Belford, Mass., diluted 1:1 in RPMI medium) in the dorsal, right flank. […] The initial day of drug administration was considered day 1. Two additional doses were given on days 5 and 9 (treatment=q4Dx3). […] Tumors were measured at least once a week and calculated as tumor mass (g)=0.5 (tumor width/2) (tumor length). Group means SEM were calculated and compared to the vehicle-treated group for statistical significance using multiple T-tests. Group means were recorded up to 50 days or until either a mouse died (which disrupted the group mean) or the tumor grew too large (>3.5 g) and the mouse had to be euthanized. […] The number of tumor free mice at the end of each study for each treatment group was also recorded. […]
# Individual components of the CHOP regimen were used at their respective maximum tolerated doses assessed in nude mice (data not reported) and were as follows: Cyclophosphamide (C) 40 mg/kg IP, doxorubicin (H) 3.3 mg/kg IP, vincristine (O) 0.5 mg/kg IP, and prednisone (P) 0.2 mg/kg PO. […]
# [3] = test system: CD22− CD33+ HL-60 leukemia cells; experiment: Flow cytometry binding to HL-60 leukemia cells; settings: data not shown
# Source text: as §2
# Ramos cells [4] = experiment: Disseminated RAMOS B lymphoma in SCID mice, developing model; assay type: in vivo; settings: Table 8; conjugates 160 μg/kg, rituximab 20 mg/kg ip Q4Dx3 from day 3
# Description: as §1
# The initial study examined the effect of two different dosing schedules on survival times of the SCID mice with the disseminated lymphoma. The first study looked at initiating drug dosing 3 days after the tumor cells were injected intravenously (developing model), while the second study delayed drug dosing until 9 days post tumor cell injection (established model).
# RL NHL xenografts = RL NHL xenografts staged to 300-400 mg in nude mice; assay type: in vivo; settings: for MEAN RELATIVE TUMOR GROWTH: tumor mass at Week 3/day 1
# Description: Similar studies were carried out using the RL lymphoma model. […] CMC-544 in a dose-dependent manner caused tumors to regress over a 3-week time frame. The minimally effective dose of CMC-544 in the RL lymphoma model was established from statistical analyses of these studies to be 20 μg/kg based on calicheamicin content. There were no deaths in any of these three studies.
# The observed anti-tumor efficacy was dose-dependent as expected and there was no difference in the efficacies of either of the two CMC-544 preparations. […] However, it should be emphasized that for each dose of conjugated calicheamicin, the quantity of antibody protein administered in the form of a conjugate was four times higher for CMC-544 made by the CMA-676 process versus that made by the CMC-544 process. Since the calicheamicin content of the targeted conjugate is primarily responsible for causing the anti-tumor effect, it is possible to deliver the required quantity of calicheamicin via the conjugate made by the new procedure using much smaller quantities of the targeting antibody. The increased loading of the conjugate made by the CMC-544 process is, in effect, due to the lack of significant amounts of the low conjugated fraction (LCF).
# large RAMOS lymphoma = experiment: Large established RAMOS lymphoma xenografts; assay type: in vivo, nude mice; settings: days 1, 5 and 9
# Description: as §3
# The same schedule of dosing was shown earlier to cause long lasting regression of small staged tumors (see Table 6).
# [5] = Table 8, conjugates 160 μg/kg, rituximab 20 mg/kg ip Q4Dx3 from day 9
# [6] = Table 9, high dose: CMC-544 160 μg/kg, rituximab 20 mg/kg, alone or combined
# [7] = Table 10, high dose: CMC-544 160 μg/kg, rituximab 20 mg/kg, alone or combined
# [8] = Table 10, low dose: CMC-544 40 μg/kg, rituximab 5 mg/kg, alone or combined
# [9] = Table 10, medium dose: CMC-544 80 μg/kg, rituximab 10 mg/kg, alone or combined
# Fc-CD22, sequence (P20273 20-416 limits assumed): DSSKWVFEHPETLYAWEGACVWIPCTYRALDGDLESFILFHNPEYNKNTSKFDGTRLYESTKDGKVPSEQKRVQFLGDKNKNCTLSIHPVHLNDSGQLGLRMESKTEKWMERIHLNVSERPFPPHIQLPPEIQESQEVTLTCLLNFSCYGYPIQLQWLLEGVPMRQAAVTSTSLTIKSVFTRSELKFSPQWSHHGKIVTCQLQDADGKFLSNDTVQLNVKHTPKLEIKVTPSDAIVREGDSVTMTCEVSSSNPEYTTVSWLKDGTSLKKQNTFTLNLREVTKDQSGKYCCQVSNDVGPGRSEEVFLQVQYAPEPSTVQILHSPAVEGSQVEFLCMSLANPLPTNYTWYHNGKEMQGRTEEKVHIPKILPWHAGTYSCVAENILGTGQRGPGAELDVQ
substance,measurement,setting,value
"5/44: murine anti-CD22 monoclonal antibody, the murine parent of G5/44",Response 1 with G544,Fc-CD22,725.1 RU
CMC-544: G5/44-NAc-gamma-calicheamicin DMH AcBut conjugate; monomeric calicheamicin derivative/humanized anti-CD22 antibody (G5/44),mice still surviving at 125 days,Ramos cells [1]; CMC-544 40 μg/kg,90%
same,Average Survival Time,Ramos cells [1]; [5],83.5 days
same,Median Survival Time,Ramos cells [1]; [5],76.5 days
same,Minimum Survival Time,Ramos cells [1]; [5],34.0 days
same,Maximum Survival Time,Ramos cells [1]; [6],>100.0 days
same,Median Survival Time,Ramos cells [1]; [6],34.5 days
same,Minimum Survival Time,Ramos cells [1]; [6],27.0 days
same,Average Survival Time,"Ramos cells [1]; Table 9 initial combination study, high dose: CMC-544 160 μg/kg, rituximab 20 mg/kg, alone or combined",58.5 days
same,Average Survival Time,Ramos cells [1]; [7],85 days and 85.22 days
same,Maximum Survival Time,Ramos cells [1]; [7],125.00 days
same,Median Survival Time,Ramos cells [1]; [7],82.00 days
same,Minimum Survival Time,Ramos cells [1]; [7],35.00 days
same,Average Survival Time,Ramos cells [1]; [8],118.90 days
same,Maximum Survival Time,Ramos cells [1]; [8],125.00 days
same,Median Survival Time,Ramos cells [1]; [8],125.00 days
same,Minimum Survival Time,Ramos cells [1]; [8],64.00 days
same,Average Survival Time,Ramos cells [1]; [9],118.22 days
same,Maximum Survival Time,Ramos cells [1]; [9],125.00 days
same,Median Survival Time,Ramos cells [1]; [9],125.00 days
same,Minimum Survival Time,Ramos cells [1]; [9],71.00 days
same,recognition of CD22 on B cells of different species,CD22 on B cells,"specifically recognizes CD22 on human B cells, but not on murine, rat, canine, porcine or primate (cynomolgus and rhesus) B cells"
same,mice with re-growth of the tumors by day 45,RL lymphoma; 160 μg/kg ip,2
same,regression of the pre-existing mass of RL lymphoma,"RL lymphoma; 160 μg/kg ip, within 30 days",> 90%
same,response of re-grown RL tumors to a second course,RL lymphoma; studies not shown,still responsive to the second course of the treatment with CMC-544 and regressed again
same,inhibition of growth of RAMOS B-cell lymphoma,RAMOS B-cell lymphoma,"efficacious in inhibiting, in a dose-dependent manner, the growth of RAMOS B-cell lymphoma"
same,median inhibitory concentration (IC50),Ramos cells [2],0.029 ng/mL
same,antitumor effect,RL B lymphoma xenograft,complete and lasted throughout the experimental period
same,binding to HL-60 leukemia cells,[3],neither CMC-544 nor G5/44 demonstrated any binding
same,Average Survival Time,Ramos cells [4],41 days and 41.0 days
same,Maximum Survival Time,Ramos cells [4],60.0 days
same,Median Survival Time,Ramos cells [4],38.0 days
same,Minimum Survival Time,Ramos cells [4],32.0 days
same,tumor regression at higher doses,RL NHL xenografts; 60-320 μg/kg,almost complete regression of RL lymphoma
same,minimally effective dose in the RL lymphoma model,"RL NHL xenografts; based on calicheamicin content, from statistical analyses of three studies",0.02 mg/kg
same,% T/C,RL NHL xenografts; calicheamicin dose 20 μg/kg,43%
same,MEAN RELATIVE TUMOR GROWTH,RL NHL xenografts; calicheamicin dose 20 μg/kg,2.87
same,% T/C,RL NHL xenografts; calicheamicin dose 40 μg/kg,20%
same,MEAN RELATIVE TUMOR GROWTH,RL NHL xenografts; calicheamicin dose 40 μg/kg,1.34
same,% T/C,RL NHL xenografts; calicheamicin dose 60 μg/kg,9%
same,MEAN RELATIVE TUMOR GROWTH,RL NHL xenografts; calicheamicin dose 60 μg/kg,0.58
same,% T/C,RL NHL xenografts; calicheamicin dose 80 μg/kg,8%
same,MEAN RELATIVE TUMOR GROWTH,RL NHL xenografts; calicheamicin dose 80 μg/kg,0.54
same,% T/C,RL NHL xenografts; calicheamicin dose 160 μg/kg,3%
same,MEAN RELATIVE TUMOR GROWTH,RL NHL xenografts; calicheamicin dose 160 μg/kg,0.21
same,% T/C,RL NHL xenografts; calicheamicin dose 320 μg/kg,1%
same,MEAN RELATIVE TUMOR GROWTH,RL NHL xenografts; calicheamicin dose 320 μg/kg,0.10
same,deaths,"RL NHL xenografts; three independent experiments, 20-320 μg/kg",no deaths
same,tumor-free mice by day 20,"large RAMOS lymphoma; 160 μg/kg conjugated calicheamicin ip, tumors staged to 1.5 or 2 g",3 out of 4
same,re-growth of regressed lymphoma up to day 50,large RAMOS lymphoma; 160 μg/kg ip,did not indicate any re-growth
